Data as given in patent publication US11135193B2, “Composition containing monoacetyldiacylglycerol compound as active ingredient for preventing or treating asthma” (Enzychem Lifesciences Corporation, priority 2013, dated 2021).
Read-outs that look alike come from different tables or passages of the source. Marks after values point to notes of the source that are not given here.

What was measured:
EL-4 cells [1] = assay: Cytotoxicity of monoacetyldiacylglycerol compounds in EL-4 cells (CCK-8 cell viability); conditions: 24 hours
Description: (§2) EL-4 cells that are mouse T lymphoma cells were suspended in 10% fetal bovine serum-containing RPMI medium (Gibco) at a concentration of 5×10^4 cells/ml, and 100 μl of the cell suspension was seeded into each well of a 96-well plate and cultured for 12 hours. Next, the cell culture was treated with monoacetyldiacylglycerol (MADG) compounds at the concentrations shown in Table 1 below, and was then additionally cultured for 24 hours. Next, according to the instruction provided in a CCK-8 kit (Dojindo) capable of counting cells, 10 μl of CCK-8 solution was added to the kit and allowed to react for 30 minutes to 4 hours, and then the absorbance (OD) at 570 nm was measured. In equation 1, the negative control group indicates a cell culture treated with 0.2% DMSO. […] Cell viability (%)=[(OD 570 nm value of MADC-treated group)/(OD 570 nm value of negative control group)]×100 Equation 1

IL-4 mRNA = assay: Inhibition of PMA-induced expression of IL-4 mRNA in EL-4 cells (PCR); format: cell-based, mouse; conditions: 20 μg/mL, PMA 1 ng/mL; for Inhibition (%) of IL-4 mRNA expression: compared to PMA-treated group
Description: Based on the results of Example 1, each of the monoacetyldiacylglycerol compounds was added to EL-4 cells at a concentration of 20 μg/mL, and the effect thereof on the inhibition of PMA-induced expression of IL-4 mRNA in the EL-4 cells was measured. Specifically, the expression level of IL-4 mRNA induced by PMA (1 ng/mL) was measured using real-time polymerase chain reaction (real-time PCR) and quantitative real time polymerase chain reaction (qPCR). For cell preparation, EL-4 cells were seeded into a 6-well plate at a concentration of 1×10^6 cells/well and cultured for 12 hours, after which the cells were treated with each of the monoacetyldiacylglycerol compounds at a concentration of 20 μg/mL for 1 hour and treated with PMA at a concentration of 1 ng/ml, followed by culture for 12 hours. Total RNA was extracted from the cells using Trizol B (Invitrogen, USA) and quantified, and then cDNA was synthesized from the total RNA using an Omniscript RT kit (Qiagen, GmbH, Hilden, Germany). The synthesized cDNA as a template was mixed with each of the IL-4 and GAPDH primers shown in Table 2 below and was subjected to PCR using a PCR mix (PCR Master Mix, Bioneer, Korea) under the following conditions: denaturation at 94° C. for 5 minutes; and then 30 cycles, each consisting of 30 sec at 95° C., 45 sec at 60° C., and 45 sec at 72° C.; followed by enzyme inactivation at 72° C. for 10 minutes. The results of measuring the percent inhibition of expression of IL-4 mRNA in EL-4 cells as described above are shown in Table 3 below. The designation of each of the samples shown in Table 3 below is as described with respect to Table 1 above.

[2] = tested on: ovalbumin-induced asthma Balb/c mice; assay: Airway hyperresponsiveness (Pehn, plethysmography) in ovalbumin-induced asthma model; format: in vivo, mouse; conditions: 30 mg/kg oral
Description: (§1) 6-week-old female SPF (specific pathogen-free) Balb/c mice (average weight: 20 g) were purchased from Samtako (Korea). The animals were sufficiently fed with solid feed (antibiotic-free, Samyang Feed Co.) and water until the start point of the experiment, and acclimated at a temperature of 22±2° C., a humidity of 55±15%, and a 12-hr light/12-hr dark cycle for 1 week, and then used in experiments. After 1 week of the acclimation period as described above, the mice were sensitized by intraperitoneal administration of a suspension of 2 mg of aluminum oxide (A8222, Sigma-Aldrich, MO, USA) and 20 μg of ovalbumin (A5503, Sigma-Aldrich) in 200 μl of phosphate buffered saline at two-week intervals. During a period from day 21 to day 23 after the first intraperitoneal administration of ovalbumin, 1% ovalbumin was inhaled into the mice for 30 minutes using an ultrasonic nebulizer (NE-U12, Omron Corp., Japan). At 24 hours after the last ovalbumin challenge, the airway hyperresponsiveness of the mice was measured, and after 48 hours, the mice were anesthetized by intraperitoneal administration of Pentobarbital (50 mg/kg, Entobal, Hanil, Korea). Then, blood was collected through the saphenous vein, and the mice were subjected to tracheostomy. Next, each of the mice was subjected to bronchoalveolar lavage with a total of 1.4 ml of PBS to collect an analytical sample. […] The drug and the sample were administered orally during a period from day 18 to day 23 after the first ovalbumin […] (FIG. 1). Seven mice were used per group.
To measure airway hyperresponsiveness that is one of the major features of asthma, one chamber plethysmography (All Medicus, Korea) was used. The degree of airway resistance was evaluated by measuring enhanced pause (Pehn). For measurement of Pehn, the basis value was measured in a normal breathing state, and then PBS was inhaled for 3 minutes using an ultrasonic nebulizer, after which the Pehn value was measured for 3 minutes.

[3] = tested on: serum IgE and ovalbumin-specific IgE; assay: Serum IgE and ovalbumin-specific IgE (ELISA), ovalbumin-induced asthma model; format: in vivo, mouse; conditions: 30 mg/kg oral
Description: as §1
The blood collected through the saphenous vein was incubated at room temperature for 30 minutes, and then centrifuged (3000 rpm, 15 min) to obtain serum. For measurement of serum IgE and ovalbumin-specific IgE, ELISA was used. IgE was measured using commercially available IgE (Biolegend Ins., USA). For measurement of ovalbumin-specific IgE, in a 96-well flat bottom ELISA plate, ovalbumin was dissolved in 0.1 M NaHCO3 buffer (pH 8.3) at a concentration of 20 μg/mL and incubated at 4° C. for 16 hours. Next, PBS containing 1% bovine serum albumin (BSA) was added to suppress nonspecific reactions. The serum sample was diluted at 1:400, allowed to react at room temperature for 2 hours, and then washed with PBS containing 0.05% Tween 20. Horseradish peroxidase (HRP)-conjugated goat […] polyclonal A was diluted 4000-fold and allowed to react at room temperature for 1 hour, and then color development was performed using 3,3′5,5′-tetramethylbenzidine substrate.

[4] = tested on: interleukins (IL-4, IL-5 and IL-13); assay: Th2 cytokines in bronchoalveolar lavage fluid (ELISA), ovalbumin-induced asthma model; format: in vivo, mouse; conditions: BALF; 30 mg/kg oral
Description: as §1
The production of interleukins (IL-4, IL-5 and IL-13) in the bronchoalveolar lavage fluid isolated from each mouse was measured using a commercially available enzyme-linked immunosorbent assay (ELISA) kit (R&D System, USA). The analysis of each cytokine was performed according to the manufacturer's instruction, and the absorbance at 450 nm was measured using an ELISA reader (Molecular Devices, USA).

[5] = tested on: ovalbumin-induced asthma Balb/c mice; assay: Inflammatory cell count in bronchoalveolar lavage fluid, ovalbumin-induced asthma model; format: in vivo, mouse; conditions: BALF; 30 mg/kg oral
Description: as §1
An increase in the number of eosinophils is one of the major features of asthma. Thus, in order to measure the number of eosinophils, the following experiment was performed. The bronchoalveolar lavage fluid from each mouse was stained with trypan blue immediately after collection, and the number of total cells (excluding dead cells) was calculated using a hemocytometer.

EL-4 cells [6] = conditions: mouse, 24 h
Description: as §2

## CCCCC/C=C\C/C=C\CCCCCCCC(=O)OCC(COC(C)=O)OC(=O)CCCCCCCCCCCCCCC (stereo not drawn) [LPAG, 1-linoeoyl-2-palmitoyl-3-acetylglycerol]
EL-4 cells [1]; 5 μg/ml
  EL-4 cell viability (%, mean ± SD): 99.67 ± 1.15%
EL-4 cells [1]; 10 μg/ml
  EL-4 cell viability (%, mean ± SD): 98.91 ± 0.50%
EL-4 cells [1]; 20 μg/ml
  EL-4 cell viability (%, mean ± SD): 99.13 ± 1.18%
IL-4 mRNA
  Expression level of IL-4 mRNA (percentage relative to PMA-treated group): 61.11 ± 27.49%
  Inhibition (%) of IL-4 mRNA expression: 38.89%

## CCCCC/C=C\C/C=C\CCCCCCCC(=O)OCC(COC(C)=O)OC(=O)CCCCCCCCCCCCCCCCC (stereo not drawn) [LSAG, 1-linoeoyl-2-stearoyl-3-acetylglycerol]
EL-4 cells [1]; 5 μg/ml
  EL-4 cell viability (%, mean ± SD): 103.82 ± 1.80%
EL-4 cells [1]; 10 μg/ml
  EL-4 cell viability (%, mean ± SD): 101.85 ± 1.00%
EL-4 cells [1]; 20 μg/ml
  EL-4 cell viability (%, mean ± SD): 98.15 ± 1.82%
IL-4 mRNA
  Expression level of IL-4 mRNA (percentage relative to PMA-treated group): 41.62 ± 17.61%
  Inhibition (%) of IL-4 mRNA expression: 58.38%

## CC(C)(O)c1ccccc1CC[C@@H](SCC1(CC(=O)O)CC1)c1cccc(/C=C/c2ccc3ccc(Cl)cc3n2)c1 [Mon, montelukast, reference compound]
[2]; methacholine 0 mg/mL
  Pehn value: 0.590 ± 0.07
[2]; methacholine 12.5 mg/mL
  Pehn value: 1.261 ± 0.29
[2]; methacholine 25 mg/mL
  Pehn value: 3.046 ± 0.61
[2]; methacholine 50 mg/mL
  Pehn value: 4.182 ± 0.99
[3]
  IgE: 2.03 ± 0.49 µg/mL
  OVA specific IgE: 198.15 ± 42.65 µg/mL
[4]
  Th2 cytokines, IL-4: 18.69 ± 3.00 pg/mL
  Th2 cytokines, IL-5: 22.74 ± 3.59 pg/mL
  Th2 cytokines, IL-13: 81.42 ± 25.59 pg/mL
[5]
  Inflammatory cell number, Eosinophils: 54 ± 17.8* 10^5 per mouse
  Inflammatory cell number, Lymphocytes: 11 ± 10.6 10^5 per mouse
  Inflammatory cell number, Macrophages: 99 ± 21.4* 10^5 per mouse
  Inflammatory cell number, Neutrophils: 14 ± 5.2 10^5 per mouse
  Inflammatory cell number, Total cells: 179 ± 44.0* 10^5 per mouse

## CCCCCCCC/C=C\CCCCCCCC(=O)OCC(COC(C)=O)OC(=O)CCCCCCCCCCCCCCC (stereo not drawn) [OPAG, 1-oleoyl-2-palmitoyl-3-acetylglycerol]
EL-4 cells [6]; 5 μg/ml
  EL-4 cell viability (%, mean ± SD): 98.04 ± 0.94%
EL-4 cells [6]; 10 μg/ml
  EL-4 cell viability (%, mean ± SD): 98.91 ± 1.68%
EL-4 cells [6]; 20 μg/ml
  EL-4 cell viability (%, mean ± SD): 99.56 ± 2.86%

## CCCCCCCC/C=C\CCCCCCCC(=O)OCC(COC(C)=O)OC(=O)CCCCCCCCCCCCCCCCC (stereo not drawn) [OSAG, 1-oleoyl-2-stearoyl-3-acetylglycerol]
EL-4 cells [6]; 5 μg/ml
  EL-4 cell viability (%, mean ± SD): 102.62 ± 2.18%
EL-4 cells [6]; 10 μg/ml
  EL-4 cell viability (%, mean ± SD): 100.98 ± 2.37%
EL-4 cells [6]; 20 μg/ml
  EL-4 cell viability (%, mean ± SD): 100.22 ± 0.68%

## CCCCCCCC/C=C\CCCCCCCC(=O)OC(COC(C)=O)COC(=O)CCCCCCCCCCCCCCC (stereo not drawn) [POAG, 1-palmitoyl-2-oleoyl-3-acetylglycerol]
EL-4 cells [6]; 5 μg/ml
  EL-4 cell viability (%, mean ± SD): 106.94 ± 2.69%
EL-4 cells [6]; 10 μg/ml
  EL-4 cell viability (%, mean ± SD): 106:39 ±1.19%
EL-4 cells [6]; 20 μg/ml
  EL-4 cell viability (%, mean ± SD): 98.90 ± 1.16%

## CCCCCCCCCCCCCCCC(=O)OCC(COC(C)=O)OC(=O)CCCCCCCCCCCCCCC (stereo not drawn) [PPAG, 1-palmitoyl-2-palmitoyl-3-acetylglycerol]
EL-4 cells [6]; 5 μg/ml
  EL-4 cell viability (%, mean ± SD): 106.28 ± 1.39%
EL-4 cells [6]; 10 μg/ml
  EL-4 cell viability (%, mean ± SD): 105.84 ± 1.38%
EL-4 cells [6]; 20 μg/ml
  EL-4 cell viability (%, mean ± SD): 96.59 ± 0.69%

## CCCCCCCCCCCCCCCCCC(=O)OC(COC(C)=O)COC(=O)CCCCCCCCCCCCCCC (stereo not drawn) [PSAG, 1-palmitoyl-2-stearoyl-3-acetylglycerol]
EL-4 cells [6]; 5 μg/ml
  EL-4 cell viability (%, mean ± SD): 98.46 ± 0.33%
EL-4 cells [6]; 10 μg/ml
  EL-4 cell viability (%, mean ± SD): 100.66 ± 1.25%
EL-4 cells [6]; 20 μg/ml
  EL-4 cell viability (%, mean ± SD): 103.30 ± 2.15%
